Measured values: article PMC8143347, “Metabolism and Interspecies Variation of IMMH-010, a Programmed Cell Death Ligand 1 Inhibitor Prodrug” (Pharmaceutics, 2021)
Entries after “also recorded” stand apart in the source; their conditions may differ. Blank lines part the entries; values can stand above or below the compound they belong to.

What was measured:
Type in all cases: in vitro ADME
CES2 = biological target: T1, CES2 (Homo sapiens, UniProt O00748); assay: Chemical inhibition of IMMH-010 hydrolysis in HLM, selective CES2 inhibitor; set-up: tissue BD Gentest; host or cells: pooled mixed-gender human liver microsomes; conditions: 50 μM inhibitor, IMMH-010 10 µM, HLM 0.2 mg/mL, 15 min
T1 sequence (O00748 27-559): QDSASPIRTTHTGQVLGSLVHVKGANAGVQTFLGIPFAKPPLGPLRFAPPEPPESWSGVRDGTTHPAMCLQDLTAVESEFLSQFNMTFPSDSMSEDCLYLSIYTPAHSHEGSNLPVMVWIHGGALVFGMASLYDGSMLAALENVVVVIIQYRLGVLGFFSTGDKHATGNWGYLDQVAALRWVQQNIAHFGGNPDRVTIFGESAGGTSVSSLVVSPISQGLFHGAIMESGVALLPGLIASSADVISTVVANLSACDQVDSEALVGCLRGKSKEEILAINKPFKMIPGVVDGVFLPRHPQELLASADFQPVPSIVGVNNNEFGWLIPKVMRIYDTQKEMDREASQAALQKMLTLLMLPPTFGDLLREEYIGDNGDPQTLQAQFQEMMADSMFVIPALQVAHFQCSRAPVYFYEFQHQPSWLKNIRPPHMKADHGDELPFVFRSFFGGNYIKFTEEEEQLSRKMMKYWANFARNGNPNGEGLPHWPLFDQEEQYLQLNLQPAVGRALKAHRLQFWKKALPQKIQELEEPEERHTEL
Procedure: (§1) Selective chemical inhibitors and recombinant human enzymes were used to investigate the esterase responsible for IMMH-010 metabolism in HLM. The selective CES1 and CES2 inhibitors were digitonin (100 μM) and telmisartan (50 μM), respectively. IMMH-010 (10 µM) was incubated with HLM (0.2 mg/mL) at 37 °C for 0 and 15 min in the presence of chemical inhibitors. Control samples were incubated without inhibitors.

[1] = IMMH-010 stability in mouse plasma; conditions: 10 μM, after 1 h of incubation
Procedure: (§2) IMMH-010 hydrolysis was investigated in human, monkey, rat, and mouse plasma. IMMH-010 (1 μM) was incubated in human, monkey, or dog plasma (0.2 mL) at 37 °C for 120 min. IMMH-010 (10 μM) was incubated in rat or mouse plasma (0.2 mL) at 4 °C for 60 min. The experiments were performed in triplicate. The reactions were initiated by the addition of IMMH-010 (10 μM). After incubation, the reactions were stopped by adding 2 volumes of ice-cold acetonitrile. After vortexing and centrifuging, the concentrations of IMMH-010 and YPD-29B in the supernatant were determined by liquid chromatography with tandem mass spectrometry (LC-MS/MS). The compound olmesartan (10 μM), a substrate of paraoxonase 1, was set as the positive control.

[2] = IMMH-010 stability in human plasma; conditions: 10 μM, after 1 h of incubation
Procedure: as §2, with “IMMH-010 (1 μM) was incubated in human, monkey, or dog plasma (0.2 mL) at 37 °C for 120 min.” left out

[3] = IMMH-010 stability in rat plasma; conditions: 10 μM, after 1 h of incubation
Procedure: as §2

[4] = IMMH-010 stability in monkey plasma; conditions: 10 μM, after 1 h of incubation
Procedure: as §2, with “IMMH-010 (1 μM) was incubated in human, monkey, or dog plasma (0.2 mL) at 37 °C for 120 min.” left out

CES1 = biological target: T2, CES1 (Homo sapiens, UniProt P23141); assay: Chemical inhibition of IMMH-010 hydrolysis in HLM, selective CES1 inhibitor; set-up: tissue BD Gentest; host or cells: pooled mixed-gender human liver microsomes; conditions: 100 μM inhibitor, IMMH-010 10 µM, HLM 0.2 mg/mL, 15 min, vs no inhibitor group
T2 sequence (P23141 18-567): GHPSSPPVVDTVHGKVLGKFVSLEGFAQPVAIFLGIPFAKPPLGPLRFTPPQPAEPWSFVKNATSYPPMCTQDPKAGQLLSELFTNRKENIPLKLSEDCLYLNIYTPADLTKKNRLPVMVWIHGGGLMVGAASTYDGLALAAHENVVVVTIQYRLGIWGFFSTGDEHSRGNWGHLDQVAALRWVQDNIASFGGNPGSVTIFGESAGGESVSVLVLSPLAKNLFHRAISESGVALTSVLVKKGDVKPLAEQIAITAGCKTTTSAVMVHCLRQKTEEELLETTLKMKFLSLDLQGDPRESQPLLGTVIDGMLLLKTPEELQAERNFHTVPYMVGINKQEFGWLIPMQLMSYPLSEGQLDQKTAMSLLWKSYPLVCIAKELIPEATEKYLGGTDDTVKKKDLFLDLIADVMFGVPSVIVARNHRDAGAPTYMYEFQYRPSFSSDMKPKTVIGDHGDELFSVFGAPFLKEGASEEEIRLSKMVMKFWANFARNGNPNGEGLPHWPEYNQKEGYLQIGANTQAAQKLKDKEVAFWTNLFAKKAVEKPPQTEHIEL
Procedure: as §1

SMILES: CCCc1nc2c(C)cc(-c3nc4ccccc4n3C)cc2n1Cc1ccc(-c2ccccc2C(=O)O)cc1 [telmisartan]
inhibition of the formation of YPD-29B (CES2): did not inhibit; also recorded: no inhibition

decrease of control compound in plasma [1]: more than 80%
decrease of control compound in plasma [2]: more than 80%
decrease of control compound in plasma [3]: more than 80%
decrease of control compound in plasma [4]: more than 80%
SMILES: CCCc1nc(C(C)(C)O)c(C(=O)O)n1Cc1ccc(-c2ccccc2-c2nnn[nH]2)cc1 [olmesartan, reference compound]

SMILES: C[C@@H]1CC[C@@]2(OC1)O[C@H]1[C@@H](O)[C@H]3[C@@H]4CC[C@H]5C[C@@H](O[C@@H]6O[C@H](CO)[C@H](O[C@@H]7O[C@H](CO)[C@@H](O)[C@H](O[C@@H]8OC[C@@H](O)[C@H](O)[C@H]8O)[C@H]7O[C@@H]7O[C@H](CO)[C@H](O)[C@H](O[C@@H]8O[C@H](CO)[C@@H](O)[C@H](O)[C@H]8O)[C@H]7O)[C@H](O)[C@H]6O)[C@H](O)C[C@]5(C)[C@H]4CC[C@]3(C)[C@H]1[C@@H]2C [digitonin]
inhibition of the formation of YPD-29B (CES1): 35.8%
